Assay [1] addresses cyclohexanone monooxygenase (CHMO) (Acinetobacter johnsonii, UniProt P12015). Description: FAD absorbance change on titration. It is filed as binding.
In assay [2] the target is cyclohexanone monooxygenase (CHMO) (Acinetobacter johnsonii, UniProt P12015, L323C/A325C). To be noted: oxidised enzyme, engineered disulfide formed.

Consider `NC(=O)c1ccc[n+]([C@@H]2O[C@H](COP(=O)(O)OP(=O)(O)OC[C@H]3O[C@@H](n4cnc5c(N)ncnc54)[C@H](OP(=O)(O)O)[C@@H]3O)[C@@H](O)[C@H]2O)c1` [NADP^+], for which the figures for the dissociation constant (Kd) in assay [1] and in assay [2] were 28 µM and 15 µM, respectively.

The values above are taken from article PMC3953729 (FEBS Open Bio, 2014).
